# In ChEMBL document CHEMBL1201862, “PubChem BioAssay data set” (2004):
# Active and inactive are the calls of the source.
# Assays:
# [1] = viability of uninfected HEp-2 cells – cell-based, HTS, cytotoxicity control for RSV inhibitor project, dose response (AID 2410); type: functional; settings: human respiratory syncytial virus
# Hexokinase = target: T1, Hexokinase (Trypanosoma brucei, UniProt Q38C41); assay: Confirmation assay for inhibitors of Trypanosoma brucei hexokinase 1-Analogue-first series. [Related pubchem assays (depositor defined):AID1430, AID1632, AID2516, AID2560, AID2579, AID2600, AID449725, AID492951]; type: functional
# T1 sequence (Q38C41 whole entry): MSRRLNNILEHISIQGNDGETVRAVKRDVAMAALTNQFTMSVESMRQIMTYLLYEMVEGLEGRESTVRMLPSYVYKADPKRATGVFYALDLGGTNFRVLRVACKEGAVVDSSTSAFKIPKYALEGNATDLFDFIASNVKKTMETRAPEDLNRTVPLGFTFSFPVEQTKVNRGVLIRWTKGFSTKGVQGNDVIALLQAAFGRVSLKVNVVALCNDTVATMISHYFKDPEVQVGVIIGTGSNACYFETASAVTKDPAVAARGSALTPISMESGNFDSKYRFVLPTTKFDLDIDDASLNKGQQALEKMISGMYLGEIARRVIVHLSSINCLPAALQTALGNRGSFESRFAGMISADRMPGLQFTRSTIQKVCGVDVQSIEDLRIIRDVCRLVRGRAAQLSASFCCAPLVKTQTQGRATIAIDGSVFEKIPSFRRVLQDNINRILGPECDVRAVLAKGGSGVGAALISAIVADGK
# [2] = target: Voltage-dependent T-type calcium channel subunit alpha-1H (Homo sapiens, UniProt O95180); type: functional;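 also: channel activity triggered by adding a high calcium stimulation buffer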
# Voltage-dependent T-type calcium channel subunit alpha-1H, sequence (O95180 whole entry): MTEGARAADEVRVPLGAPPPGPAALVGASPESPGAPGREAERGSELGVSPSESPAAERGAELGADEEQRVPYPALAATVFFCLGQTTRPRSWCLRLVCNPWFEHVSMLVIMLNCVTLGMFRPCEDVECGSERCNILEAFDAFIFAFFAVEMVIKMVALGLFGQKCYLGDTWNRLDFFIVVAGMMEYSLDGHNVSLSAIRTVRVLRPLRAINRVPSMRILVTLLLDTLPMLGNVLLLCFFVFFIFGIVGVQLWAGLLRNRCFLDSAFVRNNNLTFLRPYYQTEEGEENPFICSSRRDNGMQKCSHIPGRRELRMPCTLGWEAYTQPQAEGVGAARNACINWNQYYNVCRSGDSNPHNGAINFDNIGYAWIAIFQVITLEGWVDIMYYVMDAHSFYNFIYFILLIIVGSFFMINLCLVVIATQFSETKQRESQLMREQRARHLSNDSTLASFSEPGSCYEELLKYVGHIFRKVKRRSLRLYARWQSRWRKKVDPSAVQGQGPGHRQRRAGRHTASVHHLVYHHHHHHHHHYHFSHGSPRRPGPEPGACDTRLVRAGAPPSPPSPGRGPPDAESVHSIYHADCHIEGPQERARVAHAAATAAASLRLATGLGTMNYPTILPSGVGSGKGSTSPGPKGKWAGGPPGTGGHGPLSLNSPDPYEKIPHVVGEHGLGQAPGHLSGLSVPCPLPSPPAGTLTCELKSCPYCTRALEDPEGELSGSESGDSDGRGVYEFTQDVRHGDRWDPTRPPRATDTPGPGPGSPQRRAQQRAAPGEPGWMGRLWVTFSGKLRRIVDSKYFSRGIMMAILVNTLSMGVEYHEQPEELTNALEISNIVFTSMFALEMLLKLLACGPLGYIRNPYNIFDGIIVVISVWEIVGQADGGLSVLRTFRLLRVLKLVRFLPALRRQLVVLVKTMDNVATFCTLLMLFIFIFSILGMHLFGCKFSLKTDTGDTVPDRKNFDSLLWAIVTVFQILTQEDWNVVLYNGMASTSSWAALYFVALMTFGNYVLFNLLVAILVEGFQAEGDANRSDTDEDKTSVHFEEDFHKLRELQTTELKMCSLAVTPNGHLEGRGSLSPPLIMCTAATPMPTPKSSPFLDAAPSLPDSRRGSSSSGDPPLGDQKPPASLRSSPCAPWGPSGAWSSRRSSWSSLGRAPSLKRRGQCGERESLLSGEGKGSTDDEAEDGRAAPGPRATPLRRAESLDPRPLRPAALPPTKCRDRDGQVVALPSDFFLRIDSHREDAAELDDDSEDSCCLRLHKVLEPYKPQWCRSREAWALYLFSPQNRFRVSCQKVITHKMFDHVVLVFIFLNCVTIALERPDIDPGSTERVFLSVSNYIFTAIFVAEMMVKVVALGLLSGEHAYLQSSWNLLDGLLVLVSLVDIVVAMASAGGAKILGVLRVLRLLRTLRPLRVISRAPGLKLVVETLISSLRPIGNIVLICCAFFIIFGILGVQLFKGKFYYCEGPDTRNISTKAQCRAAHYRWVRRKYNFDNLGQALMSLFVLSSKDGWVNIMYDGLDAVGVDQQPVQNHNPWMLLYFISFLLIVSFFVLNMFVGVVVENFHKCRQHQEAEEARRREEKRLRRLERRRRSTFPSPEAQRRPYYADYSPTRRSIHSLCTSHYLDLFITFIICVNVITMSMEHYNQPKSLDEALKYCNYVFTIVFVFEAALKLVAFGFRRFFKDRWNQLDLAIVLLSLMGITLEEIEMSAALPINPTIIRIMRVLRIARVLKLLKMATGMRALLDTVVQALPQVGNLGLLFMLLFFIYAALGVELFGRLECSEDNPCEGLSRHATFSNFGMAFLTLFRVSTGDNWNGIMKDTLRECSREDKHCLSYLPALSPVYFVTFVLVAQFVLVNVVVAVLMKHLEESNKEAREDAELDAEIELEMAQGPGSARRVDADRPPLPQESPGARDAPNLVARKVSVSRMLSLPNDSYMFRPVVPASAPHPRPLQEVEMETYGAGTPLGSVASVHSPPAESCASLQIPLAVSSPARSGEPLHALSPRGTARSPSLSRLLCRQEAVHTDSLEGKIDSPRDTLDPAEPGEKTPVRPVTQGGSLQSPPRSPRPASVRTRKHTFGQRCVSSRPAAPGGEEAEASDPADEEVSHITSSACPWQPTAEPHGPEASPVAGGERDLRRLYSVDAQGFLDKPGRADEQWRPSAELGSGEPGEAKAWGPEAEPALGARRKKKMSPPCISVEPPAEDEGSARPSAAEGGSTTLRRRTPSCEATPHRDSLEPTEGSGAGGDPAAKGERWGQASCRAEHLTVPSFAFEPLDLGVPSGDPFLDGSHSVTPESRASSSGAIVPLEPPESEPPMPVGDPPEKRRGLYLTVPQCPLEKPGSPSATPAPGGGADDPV
# [3] = THP-1 cell cytotoxicity, dose response, cytotoxicity control for non-replicating M. tuberculosis project (AID 489025); type: functional
# [4] = target: T2, High affinity choline transporter 1 (Homo sapiens, UniProt Q9GZV3); assay: human choline transporter blockers, potency – cell-based, 5-point CRC, membrane potential dye, dose response (AID 504840); type: functional
# T2 sequence (Q9GZV3 whole entry): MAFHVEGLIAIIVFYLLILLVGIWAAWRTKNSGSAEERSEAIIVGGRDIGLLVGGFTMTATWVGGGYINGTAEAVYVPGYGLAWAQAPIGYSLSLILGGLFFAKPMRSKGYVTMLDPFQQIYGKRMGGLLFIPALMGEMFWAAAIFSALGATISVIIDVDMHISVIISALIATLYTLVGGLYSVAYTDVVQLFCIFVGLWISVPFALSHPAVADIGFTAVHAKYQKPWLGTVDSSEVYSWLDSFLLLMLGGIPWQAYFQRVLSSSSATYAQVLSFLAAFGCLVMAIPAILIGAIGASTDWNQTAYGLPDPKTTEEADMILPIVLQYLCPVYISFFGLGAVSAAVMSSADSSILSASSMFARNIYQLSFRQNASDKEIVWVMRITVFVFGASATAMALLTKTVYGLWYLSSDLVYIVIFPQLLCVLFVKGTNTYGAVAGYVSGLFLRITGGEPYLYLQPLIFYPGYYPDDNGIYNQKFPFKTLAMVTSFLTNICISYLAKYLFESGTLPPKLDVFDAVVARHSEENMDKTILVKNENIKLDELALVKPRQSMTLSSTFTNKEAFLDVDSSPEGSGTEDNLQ
# Streptokinase A = target: T3, Streptokinase A (Streptococcus pyogenes serotype M1, UniProt P10520); assay: viability-normalized secreted streptokinase activity reduction – plasminogen activation absorbance, OD405, dose response (AID 1914); type: functional, Streptococcus pyogenes M1 GAS;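 also: secreted streptokinase activity via plasminogen activation per viability signal from cell pellet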
# T3 sequence (P10520 whole entry): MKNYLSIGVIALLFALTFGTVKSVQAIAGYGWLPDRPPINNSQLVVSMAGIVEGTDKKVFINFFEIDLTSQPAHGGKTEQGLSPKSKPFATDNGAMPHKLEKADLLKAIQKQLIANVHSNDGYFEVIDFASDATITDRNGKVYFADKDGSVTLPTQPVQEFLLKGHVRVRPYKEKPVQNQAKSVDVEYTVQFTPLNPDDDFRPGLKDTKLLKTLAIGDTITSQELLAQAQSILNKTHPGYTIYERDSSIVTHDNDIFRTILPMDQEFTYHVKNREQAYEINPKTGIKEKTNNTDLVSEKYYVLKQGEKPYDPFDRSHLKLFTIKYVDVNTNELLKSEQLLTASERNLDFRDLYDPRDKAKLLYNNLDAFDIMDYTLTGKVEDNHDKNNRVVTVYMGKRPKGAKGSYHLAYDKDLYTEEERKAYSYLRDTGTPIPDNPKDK
# Streptococcus = assay: GAS UMAA2166 growth inhibition – luminescence, BacTiterGlo, counter-screen for streptokinase expression inhibitor project, dose response (AID 1915); type: functional, organism-based;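 also: potency for reduction of bacterial viability or growth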
# [5] = tested on: Streptococcus sp. 'group A'; assay: Streptococcus pyogenes SK(-)GAS viability under kanamycin – luminescence, BacTiterGlo, confirmation, counter-screen for streptokinase expression inhibitor project, dose response (AID 1900); type: functional, organism-based
# [6] = target: T4, Heat shock factor protein 1 (Mus musculus, UniProt P38532); assay: enhancement of HSF1-driven luciferase signal – cell-based, NIH3T3, luminescence, dose retest, confirmation (AID 435004); type: functional;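 also: stress induced by proteasome inhibitor MG132 added 30 min after compound; luciferase reporter driven by HSF1 response element in NIH3T3 cells; actives raise luminescence as potentiators of the MG132 stress response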
# T4 sequence (P38532 whole entry): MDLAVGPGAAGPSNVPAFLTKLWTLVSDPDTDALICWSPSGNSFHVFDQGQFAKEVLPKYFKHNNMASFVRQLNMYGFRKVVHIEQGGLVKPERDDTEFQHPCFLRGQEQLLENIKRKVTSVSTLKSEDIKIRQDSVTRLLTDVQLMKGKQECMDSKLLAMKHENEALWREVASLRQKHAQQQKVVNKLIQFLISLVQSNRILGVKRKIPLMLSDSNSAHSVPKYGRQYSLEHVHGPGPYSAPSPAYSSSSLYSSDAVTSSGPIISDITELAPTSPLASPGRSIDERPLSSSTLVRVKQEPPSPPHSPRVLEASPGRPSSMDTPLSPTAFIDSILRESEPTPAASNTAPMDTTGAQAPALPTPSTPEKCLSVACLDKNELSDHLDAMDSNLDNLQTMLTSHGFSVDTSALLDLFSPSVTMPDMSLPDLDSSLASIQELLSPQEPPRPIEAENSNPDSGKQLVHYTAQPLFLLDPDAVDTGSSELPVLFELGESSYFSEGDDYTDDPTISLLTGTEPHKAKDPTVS
# [7] = target: T5, Short transient receptor potential channel 4 (Mus musculus, UniProt Q9QUQ5); assay: block of DAMGO-driven TRPC4 calcium entry – cell-based, HEK293 TRPC4/mu-opioid, Fluo-4 calcium, dose response (AID 434942); type: functional;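 also: potency of inhibitors blocking the TRPC4 calcium response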
# T5 sequence (Q9QUQ5 whole entry): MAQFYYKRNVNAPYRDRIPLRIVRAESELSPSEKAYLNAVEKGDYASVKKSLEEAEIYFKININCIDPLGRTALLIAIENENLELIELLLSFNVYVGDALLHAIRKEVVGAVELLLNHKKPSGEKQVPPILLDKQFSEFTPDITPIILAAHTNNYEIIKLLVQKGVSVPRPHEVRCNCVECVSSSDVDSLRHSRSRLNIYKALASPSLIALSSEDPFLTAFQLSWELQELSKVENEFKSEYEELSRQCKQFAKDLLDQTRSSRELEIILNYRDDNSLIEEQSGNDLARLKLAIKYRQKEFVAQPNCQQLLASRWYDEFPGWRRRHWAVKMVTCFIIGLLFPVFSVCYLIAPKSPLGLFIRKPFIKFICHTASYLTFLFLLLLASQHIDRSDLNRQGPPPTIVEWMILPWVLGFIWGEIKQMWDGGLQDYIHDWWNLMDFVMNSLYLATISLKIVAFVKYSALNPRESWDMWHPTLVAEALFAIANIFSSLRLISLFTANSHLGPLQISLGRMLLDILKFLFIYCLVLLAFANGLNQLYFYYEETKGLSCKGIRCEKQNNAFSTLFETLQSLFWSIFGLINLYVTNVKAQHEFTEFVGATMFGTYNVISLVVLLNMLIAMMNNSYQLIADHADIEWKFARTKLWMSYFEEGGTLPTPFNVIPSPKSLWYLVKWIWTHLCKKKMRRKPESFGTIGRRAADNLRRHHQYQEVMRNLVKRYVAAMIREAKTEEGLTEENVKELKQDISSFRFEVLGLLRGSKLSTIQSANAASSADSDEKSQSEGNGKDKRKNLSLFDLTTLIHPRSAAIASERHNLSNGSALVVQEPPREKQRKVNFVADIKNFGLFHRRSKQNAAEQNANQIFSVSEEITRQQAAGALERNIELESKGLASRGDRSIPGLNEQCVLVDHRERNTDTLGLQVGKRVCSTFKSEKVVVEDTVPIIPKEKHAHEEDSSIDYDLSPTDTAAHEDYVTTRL
# [8] = target: T6, Rac GTPase-activating protein 1 (Homo sapiens, UniProt Q9H0H5); assay: blockers of MgcRacGAP-driven Rac1 GTP hydrolysis – biochemical, ADP Hunter fluorescence, primary and confirmatory, confirmation (AID 624330); type: functional
# T6 sequence (Q9H0H5 whole entry): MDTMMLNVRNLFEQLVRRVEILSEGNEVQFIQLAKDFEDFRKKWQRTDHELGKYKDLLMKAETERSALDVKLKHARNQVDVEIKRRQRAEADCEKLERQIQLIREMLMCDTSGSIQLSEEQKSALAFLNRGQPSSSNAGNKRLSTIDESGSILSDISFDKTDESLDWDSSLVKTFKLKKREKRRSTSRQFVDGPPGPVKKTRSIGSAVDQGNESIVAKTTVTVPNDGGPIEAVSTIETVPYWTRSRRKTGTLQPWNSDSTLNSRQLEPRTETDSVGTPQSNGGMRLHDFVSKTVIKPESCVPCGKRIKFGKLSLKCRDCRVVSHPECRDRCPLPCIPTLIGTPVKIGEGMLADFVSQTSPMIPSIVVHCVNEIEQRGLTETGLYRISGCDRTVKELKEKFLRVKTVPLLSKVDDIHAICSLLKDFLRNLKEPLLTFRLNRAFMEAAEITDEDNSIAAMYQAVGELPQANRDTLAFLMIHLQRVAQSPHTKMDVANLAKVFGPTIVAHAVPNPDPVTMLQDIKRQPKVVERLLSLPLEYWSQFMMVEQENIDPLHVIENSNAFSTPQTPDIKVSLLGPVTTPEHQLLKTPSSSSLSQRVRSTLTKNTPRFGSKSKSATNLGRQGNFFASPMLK
# Large T antigen = Large T antigen (Simian virus 40, UniProt P03070); type: functional, Betapolyomavirus macacae;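 also: Confirmatory-stage PubChem screen for compounds that inhibit SV40 T antigen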
# Large T antigen, sequence (P03070 whole entry): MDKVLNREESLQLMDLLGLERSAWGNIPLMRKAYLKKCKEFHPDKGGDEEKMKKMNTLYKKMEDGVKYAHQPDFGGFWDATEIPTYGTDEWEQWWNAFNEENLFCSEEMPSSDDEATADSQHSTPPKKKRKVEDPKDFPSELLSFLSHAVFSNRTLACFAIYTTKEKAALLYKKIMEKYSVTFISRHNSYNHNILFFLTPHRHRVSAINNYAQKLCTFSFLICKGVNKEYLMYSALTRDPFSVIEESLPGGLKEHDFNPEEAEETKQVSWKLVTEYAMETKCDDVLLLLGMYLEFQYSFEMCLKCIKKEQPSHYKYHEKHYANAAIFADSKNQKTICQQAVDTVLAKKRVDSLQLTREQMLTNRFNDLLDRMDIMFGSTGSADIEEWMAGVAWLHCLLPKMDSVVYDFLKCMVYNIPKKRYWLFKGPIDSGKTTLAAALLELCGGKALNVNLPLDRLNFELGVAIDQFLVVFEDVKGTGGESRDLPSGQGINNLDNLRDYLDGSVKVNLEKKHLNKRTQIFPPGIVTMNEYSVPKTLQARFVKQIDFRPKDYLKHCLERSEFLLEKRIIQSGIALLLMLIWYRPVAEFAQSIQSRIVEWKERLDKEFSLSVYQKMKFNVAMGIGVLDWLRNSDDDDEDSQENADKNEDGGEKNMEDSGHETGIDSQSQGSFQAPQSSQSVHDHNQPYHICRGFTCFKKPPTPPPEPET
# Leucine aminopeptidase = target: T7, Leucine aminopeptidase (Plasmodium falciparum 3D7, UniProt Q8IL11); assay: P. falciparum M17LAP inhibitors, primary screen, biochemical, fluorogenic H-Leu-NHMec substrate, 1536-well (AID 1619); type: functional
# T7 sequence (Q8IL11 whole entry): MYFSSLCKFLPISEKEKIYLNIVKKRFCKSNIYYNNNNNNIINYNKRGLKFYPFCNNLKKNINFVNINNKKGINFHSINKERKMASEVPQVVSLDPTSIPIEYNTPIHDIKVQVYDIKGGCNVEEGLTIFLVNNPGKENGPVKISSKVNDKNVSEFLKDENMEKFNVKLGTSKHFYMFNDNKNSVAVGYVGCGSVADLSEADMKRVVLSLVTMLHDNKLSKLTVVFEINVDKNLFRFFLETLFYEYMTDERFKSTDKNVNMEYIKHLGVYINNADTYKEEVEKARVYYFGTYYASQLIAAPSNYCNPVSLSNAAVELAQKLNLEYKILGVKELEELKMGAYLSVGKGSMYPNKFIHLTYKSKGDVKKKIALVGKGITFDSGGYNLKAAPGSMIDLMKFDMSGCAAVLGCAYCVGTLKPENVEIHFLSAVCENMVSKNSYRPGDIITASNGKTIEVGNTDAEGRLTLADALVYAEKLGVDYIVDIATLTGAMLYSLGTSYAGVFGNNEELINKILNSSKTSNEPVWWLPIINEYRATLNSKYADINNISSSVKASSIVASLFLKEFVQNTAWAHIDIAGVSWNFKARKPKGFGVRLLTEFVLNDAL
# [9] = target: FAD-linked sulfhydryl oxidase ALR (Homo sapiens, UniProt P55789); assay: ALR-catalysed DTT oxidation blockers – biochemical, H2O2 detection, luminescence, cherry-pick, dose response (AID 493248)
# FAD-linked sulfhydryl oxidase ALR, sequence (P55789 whole entry): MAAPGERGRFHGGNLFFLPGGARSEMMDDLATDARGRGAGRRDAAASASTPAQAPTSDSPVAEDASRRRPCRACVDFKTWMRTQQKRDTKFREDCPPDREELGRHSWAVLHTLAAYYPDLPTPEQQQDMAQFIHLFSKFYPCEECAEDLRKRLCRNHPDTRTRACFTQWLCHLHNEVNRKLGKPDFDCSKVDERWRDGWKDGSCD
smiles,measurement,setting,value
O=C1CCSc2ccc(Cl)cc2N1Cc1cccc(Cl)c1,IC50,cells,42.8 µM (active)
same,CC50,[1],35.5 µM (active)
COc1ccc2c(c1)CN(c1cc(Cl)ccc1C(=O)O)C2=O,IC50,Hexokinase,> 25 µM (inactive)
COc1cc2c(cc1OC)C(C)N(C(=O)c1cc3ccccc3o1)CC2 (stereo not given),IC50,cells,39.6 µM (active)
same,CC50,[1],17.7 µM (active)
CCOc1cc(CNc2ccccc2)cc(Br)c1OCC(=O)NC(C)(C)C,EC50,[2],15.4 µM (active)
Cc1ccc(C)c(N2CCN(C(=O)Cc3cn(C)c4ccccc34)CC2)c1,EC50,[2],9.19 µM (active)
COc1ccc(NC(=O)c2ccccc2SCc2ccccc2)cc1,IC50,Hexokinase,> 25 µM (inactive)
Cc1cc(C)nc(SCc2nnc(SCC(=O)Nc3ccc(C)c(C)c3)n2Cc2ccco2)n1,EC50,[2],4.05 µM (active)
O=C(Nc1cc(Cl)ccc1C(=O)O)c1cocn1,IC50,Hexokinase,> 25 µM (inactive)
Oc1ccccc1Nc1nc(NCC2CCCO2)c2ccccc2n1 (stereo not given),CC50,[3],30.4 µM (active)
Cc1ccc(OCCSC2=NN2c2cc(C)nc(N)n2)cc1,IC50,[4],14.8 µM (active)
Cc1cc2nc(-c3ccc(NC(=O)C(C)C)cc3)oc2cc1C,IC50,cells,39.1 µM (active)
Nc1sc(-c2ccccc2)cc1C(=O)N/N=C/c1ccc(Cl)cc1,IC50,cells,35.7 µM (active)
same,EC50,Streptokinase A,> 150 µM (not active)
same,EC50,Streptococcus,4.54 µM (active)
same,EC50,[5],3.46 µM (active)
same,CC50,[1],> 50 µM (active)
COc1ccc(C(=O)Nc2cc(Cl)ccc2-c2nnn[nH]2)cc1,IC50,Hexokinase,10.9 µM (active)
O=C(/C=C/c1ccc2c(c1)OCO2)NCCSCc1ccc(Cl)cc1Cl,EC50,[2],4.94 µM (active)
COc1ccc(C(=O)Nc2cc(Br)ccc2C(=O)O)cc1,IC50,Hexokinase,6.94 µM (active)
CC(C)(C)Cc1nc2ccccc2n1CCc1ccccc1,EC50,[2],7.13 µM (active)
same,EC50,[6],> 260 µM (inactive)
same,EC50,[7],1.06 µM (active)
CCN(c1ccccc1)S(=O)(=O)c1ccc(OC)c(NC(=O)Cc2ccccc2OC)c1,IC50,cells,35 µM (active)
same,CC50,[1],> 50 µM (active)
COc1cc(/C(C)=N/NC(=O)Cc2c(C)n[nH]c2O)ccc1O,IC50,[8],69.8 µM (active)
same,IC50,Large T antigen,13 µM (active)
same,IC50,Leucine aminopeptidase,34.1 µM (active)
same,AC50,[9],4.03 µM (active)
